Experimental data: publication PMC10647736, “Aza Analogs of the TRPML1 Inhibitor Estradiol Methyl Ether (EDME)” (Molecules, 2023)
“Also recorded” adds a separate entry of the source. Like-named read-outs stand apart in the source and are kept apart here.

Tests used:
[1] = biological target: T1, hTRPML1ΔNC-YFP, a plasma membrane variant of wild-type TRPML1 (Homo sapiens, UniProt Q9GZU1); set-up: method as in PMID 33859333; conditions: previous work, cited from earlier work; for IC50: hTRPML1ΔNC-YFP, read-out: IC50 TRPML1 inhibition
T1 sequence (Q9GZU1 whole entry, stated change not applied): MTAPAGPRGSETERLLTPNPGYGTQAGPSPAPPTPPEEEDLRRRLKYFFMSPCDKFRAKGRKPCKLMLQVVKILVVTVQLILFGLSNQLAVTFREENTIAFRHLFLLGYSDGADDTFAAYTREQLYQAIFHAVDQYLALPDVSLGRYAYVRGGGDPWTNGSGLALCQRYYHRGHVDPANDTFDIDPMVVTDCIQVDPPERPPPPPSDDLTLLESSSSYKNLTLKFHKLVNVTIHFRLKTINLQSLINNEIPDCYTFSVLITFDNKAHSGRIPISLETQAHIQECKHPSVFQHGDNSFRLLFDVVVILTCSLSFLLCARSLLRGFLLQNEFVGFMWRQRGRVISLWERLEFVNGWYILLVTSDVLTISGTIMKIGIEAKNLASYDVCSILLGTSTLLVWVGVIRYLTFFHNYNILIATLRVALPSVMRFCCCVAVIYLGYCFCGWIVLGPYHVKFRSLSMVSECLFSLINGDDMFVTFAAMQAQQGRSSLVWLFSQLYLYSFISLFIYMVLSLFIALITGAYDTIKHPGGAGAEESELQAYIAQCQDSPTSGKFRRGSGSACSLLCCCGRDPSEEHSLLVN

[2] = biological target: T1, hTRPML1ΔNC-YFP, a plasma membrane variant of wild-type TRPML1; assay: TRPML1 inhibition, fluorimetric Ca2+ influx assay (Fluo-4/AM) on HEK293 cells stably expressing plasma membrane-targeted TRPML1; type: cell-based; conditions: for TRPML1-inhibitory activity (in words) / IC50: hTRPML1ΔNC-YFP; for TRPML1-inhibitory activity (in words): Ca2+ influx assay; for IC50: HEK293 cells, Ca2+ influx, Fluo-4/AM
Description: The two target compounds, pyridine analog 1 and pyrimidine analog 2, as well as the inadvertently obtained pyridone analog 6 were submitted to our previously described test for inhibition of TRPML1 on hTRPML1ΔNC-YFP, a plasma membrane variant of wild-type TRPML1 by means of a fluorimetric Ca^2+ influx assay.
hTRPML1ΔNC-YFP, a plasma membrane variant of wild-type TRPML1, was obtained from HEK293 cells stably expressing plasma membrane-targeted TRPML1 by trypsination and after resuspending in HEPES buffered solution. IC50 values for TRPML1 inhibition were determined on a fluorescence imaging plate reader built into a robotic liquid handling station (Freedom Evo 150, Tecan, Mannedorf, Switzerland) using the calcium dye Fluo-4/AM (Invitrogen, Thermo Fisher Scientific, Waltham, MA, USA) according to the test procedure described in our previous work in the section Compound screening and generation of concentration–response curves.

[3] = set-up: method as in PMID 33859333; conditions: compared to EDME; cited from earlier work

Row | SMILES | IC50 [2] [nM] | IC50 [1] [nM] | other results
1 | C#C[C@]1(O)CC[C@H]2[C@@H]3CCc4cc(OC)ccc4[C@H]3CC[C@@]21C [mestranol] | – | – | TRPML1 inhibition (in words) [1]: considerable activity
2 | C[C@]12CC[C@@H]3c4ccc(=O)[nH]c4CC[C@H]3[C@@H]1CC[C@@H]2O [Compound 6, (4bS,6aS,7S,9aS,9bR)-7-hydroxy-6a-methyl-1,4b,5,6,6a,7,8,9,9a,9b,10,11-dodecahydro-2H-indeno[5,4-f]quinolin-2-one] | 40000 | – | TRPML1-inhibitory activity (in words) [2]: virtually inactive; TRPML1-inhibitory activity (in words) ([2]; listed as pyridone analog): completely inactive
3 | COc1ccc2c(n1)CC[C@@H]1[C@@H]2CC[C@]2(C)[C@@H](O)CC[C@@H]12 [Compound 1, (4bS,6aS,7S,9aS,9bR)-2-Methoxy-6a-methyl-4b,6,6a,7,8,9,9a,9b,10,11-decahydro-5H-indeno[5,4-f]quinolin-7-ol] | 1000 | – | TRPML1-inhibitory activity, factor less potent than EDME ([2]; compared to EDME): < 2; melting point: 157 °C
4 | COc1ncc2c(n1)CC[C@@H]1[C@@H]2CC[C@]2(C)[C@@H](O)CC[C@@H]12 [Compound 2, (4bS,6aS,7S,9aS,9bR)-2-Methoxy-6a-methyl-4b,6,6a,7,8,9,9a,9b,10,11-decahydro-5H-indeno[5,4-f]quinazolin-7-ol] | 8800 | – | TRPML1-inhibitory activity (in words) [2]: only a very weak inhibitor; also recorded: significantly lost inhibitory potency
5 | C=Cc1ccc2c(c1)CC[C@@H]1[C@@H]2CC[C@]2(C)[C@@H](O)CC[C@@H]12 [PRU-10] | – | 410 | estrogenic activity (in words) [3]: reduced estrogenic activity
6 | C[C@]12CC[C@@H]3c4ccc(O)cc4CC[C@H]3[C@@H]1CC[C@@H]2O [17β-estradiol] | – | 5300 | –
7 | COc1ccc2c(c1)CC[C@@H]1[C@@H]2CC[C@]2(C)[C@@H](O)CC[C@@H]12 [EDME, estradiol methyl ether] | 600 | 600 | –
8 | CC(=O)c1ccc2c(c1)CC[C@@H]1[C@@H]2CC[C@]2(C)[C@@H](O)CC[C@@H]12 [PRU-12] | – | 280 | estrogenic activity (in words) [3]: reduced estrogenic activity
